Columns and labels:
[1] = system: gap junctions between AMs and AECs; test: Gap junction blockade in vivo; set-up: species or system mice; details: for effect on PS-GAMP adjuvanticity (IgG2c): i.p. prior to and during immunization
[2] = system: immune mediators (Ifnb1, Gmcsf, Tnf, Ccl2, Ccl3, Ccl5, Cxcl10); details: mouse, in vivo
[3] = mouse, in vivo
GZ89 H3N2 virus = system: GZ89 H3N2 virus; set-up: species or system mice; details: mouse, in vivo
SH13 H7N9 virus = system: SH13 H7N9 virus; set-up: species or system mice; details: mouse, in vivo
CA09 H1N1 vaccine = assay type: in vivo, C57BL/6 mice; details: 20 μg, 2 weeks
[4] = i.p. inhibitor, i.n. SRB-nano4, 12 h

With CC(=O)c1ccc2c(c1)[C@H](NC(=O)c1ccc(F)c(Cl)c1)[C@H](O)C(C)(C)O2 [tonabersat] the “effect on PS-GAMP adjuvanticity (IgG2c)” value [1] was “blunted substantially”.
With CCOC(=O)C1=C[C@@H](OC(CC)CC)[C@H](NC(C)=O)[C@@H](N)C1 [oseltamivir] the “control of CA09 H1N1 viral infection” value (CA09 H1N1 virus; unimmunized mice, 20 mg/kg/day) was “effectively control CA09H1N1”.
With CC1(C)[C@@H](OC(=O)CCC(=O)O)CC[C@]2(C)[C@H]3C(=O)C=C4[C@@H]5C[C@@](C)(C(=O)O)CC[C@]5(C)CC[C@@]4(C)[C@]3(C)CC[C@@H]12 [CBX, carbenoxolone] the “SRB uptake by AMs” value [1, 4] was “did not affect SRB uptake by AMs”, the “entry of SRB into AECs” value [1, 4] was “blocked” and the “effect on PS-GAMP adjuvanticity (IgG2c)” value [1] was “blunted substantially”. For the same compound, the “Ifnb1 transcription in AMs” value ([1]; lungs receiving PS-GAMP, 12 h) was “increasing Ifnb1 transcription in AMs”, the “transcription of Ifnb1 and Gmcsf in AECs” value ([1]; lungs receiving PS-GAMP, 12 h) was “greatly diminished” and the “reduction of recruitment of CD11b+ DCs” value ([1]; vaccine + PS-GAMP, lung, 24 h) was 50%.
In the case of cholera toxin [CT], the “cytokine production in the brain” value [2] was “measurable cytokine mRNA expression in the brains of some mice” and the “histology of lungs, nasal tissue, and brains” value [3] was “massive inflammatory cell infiltrates in the lung”.
With Cc1ccc(Cl)c(Nc2ccccc2C(=O)O)c1Cl [meclofenamate] the “effect on PS-GAMP adjuvanticity (IgG2c)” value [1] was “blunted substantially”.
For CCCCCCCCc1ccc(CCC(N)(CO)CO)cc1 [FTY720], the “effect on cross-protection elicited by vaccine/PS-GAMP” value (GZ89 H3N2 virus) was “not compromised”.
In the case of poly IC, the “heterosubtypic protection from SH13 H7N9 challenge” value (SH13 H7N9 virus) was “failed to provoke significant heterosubtypic protection”, the “lower efficacy in augmenting BALF IgA (vs PS-GAMP)” value (CA09 H1N1 vaccine) was 30 fold and the “lower efficacy in augmenting HAI titers (vs PS-GAMP)” value (CA09 H1N1 vaccine) was “fivefold”. The “lower efficacy in augmenting serum IgG (vs PS-GAMP)” value (CA09 H1N1 vaccine) was 100 fold, the “body weight loss after 10×LD50 CA09 H1N1 challenge” value (CA09 H1N1 virus; mouse, in vivo) was “severe body weight loss” and the “protection against 10×LD50 CA09 H1N1 viral challenge” value (CA09 H1N1 virus; mouse, in vivo) was 33%.

From patent US20220362153A1, “COMPOSITIONS AND METHODS FOR PULMONARY SURFACTANT-BIOMIMETIC NANOPARTICLES” (priority 2019, published 2022)
